Patent publication US20260125359A1, “HETEROARYL COMPOUNDS AS MULTI-TARGET PROTEIN KINASE INHIBITORS” (FUJIAN HAIXI PHARMACEUTICALS CO., LTD., priority 2023, published 2026)

The compounds below were run on M-NFS-60 cells (assay: M-NFS-60 cell in vitro assay (CCK, 48 h, M-CSF factor medium)). Conditions: M-NFS-60 cells; read-out: M-NFS-60cellassay IC50.
Format: cell-based
Procedure, shortened: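 IC50 values were fitted from CCK absorbance (450 nm, 2 h development) after 48 h compound treatment. Cells: M-NFS-60, seeded 2000/well and rested 4 h, grown in medium carrying 25 ng/ml M-CSF factor plus 10% serum; compounds serially diluted in DMSO.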

SMILES | IC50 [µM]
Cn1cc(-c2cnc(N)c(O[C@H]3CCc4c(C(=O)Nc5cccc(C6CC6)c5)cccc43)c2)cn1 [Compound 4, (S)-1-((2-amino-5-(1-methyl-1H-pyrazol-4-yl)pyridin-3-yl)oxy)-N-(3-cyclopropylphenyl)-2,3-dihydro-1H-indene-4-carboxamide] | < 0.05
Cc1cccc(NC(=O)c2cccc3c2CC[C@@H]3Nc2cncc(-c3cnn(C)c3)c2)c1 [Compound 13, (S)-1-((5-(1-methyl-1H-pyrazol-4-yl)pyridin-3-yl)amino)-N-(m-tolyl)-2,3-dihydro-1H-indene-4-carboxamide] | < 0.05
Cn1cc(-c2cncc(N[C@H]3CCc4c(C(=O)Nc5cncc(Cl)c5)cccc43)c2)cn1 [Compound 14aa, (S)—N-(5-chloropyridin-3-yl)-1-((5-(1-methyl-1H-pyrazol-4-yl)pyridin-3-yl)amino)-2,3-dihydro-1H-indene-4-carboxamide] | < 0.05
Cn1cc(-c2cncc(N[C@H]3CCc4c(C(=O)Nc5ccc(C(F)(F)F)nc5)cccc43)c2)cn1 [Compound 14ah] | < 0.05
CN1CCc2ccc(NC(=O)c3cccc4c3CC[C@@H]4Nc3cncc(-c4cnn(C)c4)c3)cc2C1 [Compound 14ap] | < 0.05
Cc1cncc(NC(=O)c2cccc3c2CC[C@@H]3Nc2cncc(-c3cnn(C)c3)c2)c1 [Compound 14as] | < 0.05
CN1CCc2nc(NC(=O)c3cccc4c3CC[C@@H]4Nc3cncc(-c4cnn(C)c4)c3)sc2C1 [Compound 14ba] | < 0.05
Cc1cccc(C(=O)Nc2cccc3c2CC[C@@H]3Oc2cncc(-c3cnn(C)c3)c2)c1 [Compound 15, (S)-3-methyl-N-(1-((5-(1-methyl-1H-pyrazol-4-yl)pyridin-3-yl)oxy)-2,3-dihydro-1H-inden-4-yl)benzamide] | 0.2 to 0.5
Cn1cc(-c2cncc(O[C@H]3CCc4c(C(=O)Nc5cncc(Cl)c5)cccc43)c2)cn1 [Compound 19a, (S)—N-(5-chloropyridin-3-yl)-1-((5-(1-methyl-1H-pyrazol-4-yl)pyridin-3-yl)oxy)-2,3-dihydro-1H-indene-4-carboxamide] | < 0.05
Cn1cc(-c2cncc(O[C@H]3CCc4c(C(=O)Nc5cccc(C6CC6)c5)cccc43)c2)cn1 [Compound 19b] | < 0.05
CN1CCc2nc(NC(=O)c3cccc4c3CC[C@@H]4Oc3cncc(-c4cnn(C)c4)c3)sc2C1 [Compound 19f] | 0.05 to 0.2
CN(C)Cc1cncc(NC(=O)c2cccc3c2CC[C@@H]3Oc2cncc(-c3cnn(C)c3)c2)c1 [Compound 19h] | > 0.5
Cc1cncc(NC(=O)c2cccc3c2CC[C@@H]3Oc2cncc(-c3cnn(C)c3)c2)c1 [Compound 19j] | < 0.05
Cc1cc(NC(=O)c2cccc3c2CC[C@@H]3Oc2cncc(-c3cnn(C)c3)c2)cc(C)n1 [Compound 19k, (S)—N-(2,6-dimethylpyridin-4-yl)-1-((5-(1-methyl-1H-pyrazol-4-yl)pyridin-3-yl)oxy)-2,3-dihydro-1H-indene-4-carboxamide] | < 0.05
CN(c1cncc(-c2cnn(C)c2)c1)[C@H]1CCc2c(C(=O)Nc3cncc(Cl)c3)cccc21 [Compound 21, (S)—N-(5-chloropyridin-3-yl)-1-(methyl (5-(1-methyl-1H-pyrazol-4-yl)pyridin-3-yl)amino)-2,3-dihydro-1H-indene-4-carboxamide] | 0.05 to 0.2
CN(c1cncc(-c2cnn(C)c2)c1)[C@H]1CCc2c(C(=O)Nc3cccc(C4CC4)c3)cccc21 [Compound 22a, (S)—N-(3-cyclopropylphenyl)-1-(methyl (5-(1-methyl-1H-pyrazol-4-yl)pyridin-3-yl)amino)-2,3-dihydro-1H-indene-4-carboxamide] | < 0.05
Cn1cc(-c2cncc(N[C@H]3CCc4c(C(=O)Nc5nn(C)c6ccccc56)cccc43)n2)cn1 [Compound 27g, (S)—N-(1-methyl-1H-indazol-3-yl)-1-((6-(1-methyl-1H-pyrazol-4-yl)pyrazin-2-yl)amino)-2,3-dihydro-1H-indene-4-carboxamide] | < 0.05
Cn1cc(-c2cncc(N[C@H]3CCc4c(Nc5cc(C(C)(C)C)on5)cccc43)c2)cn1 [Compound 41, (S)—N^4-(5-(tert-butyl)isoxazol-3-yl)-N^1-(5-(1-methyl-1H-pyrazol-4-yl)pyridin-3-yl)-2,3-dihydro-1H-indene-1,4-diamine] | < 0.05
Cn1cc(-c2cncc(N[C@H]3CCc4c(Nc5noc(C(C)(C)C)n5)cccc43)c2)cn1 [Compound 42o] | 0.05 to 0.2
Cn1ncc2ncc(N[C@H]3CCc4c(C(=O)Nc5cccc(C6CC6)c5)cccc43)cc21 [Compound 73, (S)—N-(3-cyclopropylphenyl)-1-((1-methyl-1H-pyrazolo[4,3-b]pyridin-6-yl)amino)-2,3-dihydro-1H-indene-4-carboxamide] | < 0.05
Cn1cc2ncc(N[C@H]3CCc4c(C(=O)Nc5nc(C6CC6)cs5)cccc43)cc2n1 [Compound 74h, (S)—N-(4-cyclopropylthiazol-2-yl)-1-((2-methyl-2H-pyrazolo[4,3-b]pyridin-6-yl)amino)-2,3-dihydro-1H-indene-4-carboxamide] | < 0.05
Cn1ncc2ncc(O[C@H]3CCc4c(C(=O)Nc5cncc(Cl)c5)cccc43)cc21 [Compound 76ac, (S)—N-(5-chloropyridin-3-yl)-1-((1-methyl-1H-pyrazolo[4,3-b]pyridin-6-yl)oxy)-2,3-dihydro-1H-indene-4-carboxamide] | < 0.05
Cn1cc2ncc(O[C@H]3CCc4c(C(=O)Nc5cncc(Cl)c5)cccc43)cc2n1 [Compound 76ai] | < 0.05
Cn1cc2ncc(O[C@H]3CCc4c(C(=O)Nc5nn(C)c6ccccc56)cccc43)cc2n1 [Compound 76al] | < 0.05
Cn1cc2ncc(O[C@H]3CCc4c(C(=O)Nc5nn(C)c6cccc(F)c56)cccc43)cc2n1 [Compound 76aw] | < 0.05
Cc1cccc(NC(=O)c2cccc3c2CC[C@@H]3Oc2cnc3cn(C)nc3c2)n1 [Compound 76bd] | < 0.05
CN(c1cnc2cn(C)nc2c1)[C@H]1CCc2c(C(=O)Nc3cncc(Cl)c3)cccc21 [Compound 80k] | < 0.05
CN(c1cnc2cn(C)nc2c1)[C@H]1CCc2c(C(=O)Nc3nn(C)c4ccccc34)cccc21 [Compound 80l] | < 0.05
Cn1ncc2ncc(N[C@H]3CCc4c(Nc5cc(C(C)(C)C)on5)cccc43)nc21 [Compound 86, (S)—N^4-(5-(tert-butyl)isoxazol-3-yl)-N1-(1-methyl-1H-pyrazolo[3,4-b]pyrazin-6-yl)-2,3-dihydro-1H-indene-1,4-diamine] | < 0.05
